Results from patent US20230131427A1, “FUNGICIDAL COMPOSITIONS” (SYNGENTA CROP PROTECTION AG, priority 2020, published 2023).
Several values for one entry are separate records, joined by “and”; a condition that tells them apart may be missing. Equal values may be shown once. Read-outs that look alike come from different tables or passages of the source.

What was measured:
[1] = test system: Puccinia recondita f. sp. tritici; assay: Puccinia recondita f. sp. tritici / wheat / leaf disc preventative (brown rust); format: in vivo; details: foliar, vs untreated control
Method: (§1) Leaf disks or leaf segments of various plant species are cut from plants grown in a greenhouse. The cut leaf disks or segments are placed in multiwell plates (24-well format) onto water agar. The leaf disks are sprayed with a test solution before (preventative) or after (curative) inoculation. Compounds to be tested are prepared as DMSO solutions (max. 10 mg/mL) which are diluted to the appropriate concentration with 0.025% Tween20 just before spraying. The inoculated leaf disks or segments are incubated under defined conditions (temperature, relative humidity, light, etc.) according to the respective test system. A single evaluation of disease level is carried out 3 to 14 days after inoculation, depending on the pathosystem. Percent disease control relative to the untreated check leaf disks or segments is then calculated.
Wheat leaf segments cv. Kanzler are placed on agar in multiwell plates (24-well format) and sprayed with the formulated test compound diluted in water. The leaf disks are inoculated with a spore suspension of the fungus 1 day after application. The inoculated leaf segments are incubated at 19° C. and 75% rh under a light regime of 12 h light/12 h darkness in a climate cabinet and the activity of a compound is assessed as percent disease control compared to untreated when an appropriate level of disease damage appears in untreated check leaf segments (7-9 days after application).

Phakopsora pachyrhizi [2] = assay: Phakopsora pachyrhizi / soybean / leaf disc preventative (Asian soybean rust); format: in vivo; details: foliar, 288 h, vs untreated control
Method: as §1
Soybean leaf disks are placed on agar in multiwell plates (24-well format) and sprayed with test solutions. After drying, the leaf disks are inoculated with a spore suspension of the fungus. After appropriate incubation the activity of a compound is assessed approx.12 dpi (days after inoculation) as preventive fungicidal activity.

[3] = test system: Glomerella lagenarium (Colletotrichum lagenarium); assay: Glomerella lagenarium (Colletotrichum lagenarium) liquid culture / cucumber / preventative (anthracnose); format: cell-based; details: Colletotrichum orbiculare, vs untreated control
Method: Mycelia fragments or conidia suspensions of a fungus prepared either freshly from liquid cultures of the fungus or from cryogenic storage, are directly mixed into nutrient broth. DMSO solutions of the test compound (max. 10 mg/mL) are diluted with 0.025% Tween20 by a factor of 50 and 10 μl of this solution is pipetted into a microtiter plate (96-well format). The nutrient broth containing the fungal spores/mycelia fragments is then added to give an end concentration of the tested compound. The test plates are incubated in the dark at 24° C. and 96% relative humidity. The inhibition of fungal growth is determined photometrically after 2 to 7 days, depending on the pathosystem, and percent antifungal activity relative to the untreated check is calculated.
Conidia of the fungus from cryogenic storage are directly mixed into nutrient broth (PDB potato dextrose broth). After placing a (DMSO) solution of test compound into a microtiter plate (96-well format), the nutrient broth containing the fungal spores is added.

[4] = test system: Puccinia recondita f. sp. tritici; assay: Puccinia recondita f. sp. tritici / wheat / leaf disc curative (brown rust); format: in vivo; details: foliar, vs untreated control
Method: Leaf disks or leaf segments of various plant species are cut from plants grown in a greenhouse. The cut leaf disks or segments are placed in multiwell plates (24-well format) onto water agar. The leaf disks are sprayed with a test solution before (preventative) or after (curative) inoculation. […] The inoculated leaf disks or segments are incubated under defined conditions (temperature, relative humidity, light, etc.) according to the respective test system. […] Percent disease control relative to the untreated check leaf disks or segments is then calculated. Wheat leaf segments cv. Kanzler are placed on agar in multiwell plates (24-well format). The leaf segments are inoculated with a spore suspension of the fungus. […] The formulated test compound diluted in water is applied 1 day after inoculation.

Septoria glycines = assay: Example B2: mixtures, preventative activity against Septoria glycines (brown spot), liquid culture; format: cell-based; details: Septoria glycines, component A alone
Source text: (§2) This occurs whenever the action of an active ingredient combination is greater than the sum of the actions of the individual components. The action to be expected E for a given active ingredient combination obeys the so-called COLBY formula and can be calculated as follows (COLBY, S. R. “Calculating synergistic and antagonistic responses of herbicide combination”. Weeds, Vol. 15, pages 20-22; 1967):
(§3) If the action actually observed (O) is greater than the expected action (E), then the action of the combination is super-additive, i.e. there is a synergistic effect. In mathematical terms, synergism corresponds to a positive value for the difference of (O-E). In the case of purely complementary addition of activities (expected activity), said difference (O-E) is zero. A negative value of said difference (O-E) signals a loss of activity compared to the expected activity.
Conidia of the fungus harvested from a fresh culture grown on artificial media, were directly mixed into nutrient broth (PDB potato dextrose broth). A DMSO solution of the test compounds was placed into a microtiter plate (96-well format) and the nutrient broth containing the fungal spores was added to it.
(§4) Fungicidal activity was evaluated on a 100-0 scale (100=no disease growth; 0=well completely covered by mycelium).

Septoria tritici = assay: Example B3: mixtures, preventative activity against Septoria tritici (leaf blotch), liquid culture; format: cell-based; details: component A alone
Source text: as §2, §3
(§5) Conidia of the fungus from cryogenic storage were directly mixed into nutrient broth (PDB potato dextrose broth). A DMSO solution of the test compounds was placed into a microtiter plate (96-well format) and the nutrient broth containing the fungal spores was added to it.
as §4

[5] = test system: Mycosphaerella arachidis syn. Cercospora arachidicola; assay: Example B4: mixtures, preventative activity against Mycosphaerella arachidis syn. Cercospora arachidicola (brown leaf spot of peanut), liquid culture; format: cell-based; details: Mycosphaerella arachidis, component A alone
Source text: as §2, §3, §5
Cercospora arachidicola (Brown leaf spot of peanut). Fungicidal activity was evaluated on a 100-0 scale (100=no disease growth; 0=well completely covered by mycelium).

Phakopsora pachyrhizi [6] = assay: Example B5: preventative activity against Phakopsora pachyrhizi (soybean rust), whole soybean plants sprayed, leaf disks inoculated; format: in vivo; details: applied alone
Method: Whole soybean plants are treated with the recited active ingredients 4 weeks after planting. 1 day after spraying leaf disks are cut from the first trifoliate leaf. Five repetitions at each rate are conducted. The leaf disks are inoculated with Phakopsora pachyrhizi (Asian soybean rust) one day after treatment.
Evaluation of the leaf disks is conducted 11 to 14 days after inoculation and the activity is derived from the relation of the treated vs untreated, infested check (100=no disease, no damage to the leaf, 0=high infestation, leaf damaged heavily). The rates of the active ingredients used are given in the tables as g active ingredient (a.i.)/ha.

[7] = test system: Glomerella lagenarium syn. Colletotrichum lagenarium; assay: Example B1: mixtures, preventative activity against Glomerella lagenarium syn. Colletotrichum lagenarium, liquid culture; format: cell-based; details: Colletotrichum orbiculare, component A alone
Source text: as §2, §3, §5, §4

[8] = Phakopsora pachyrhizi, foliar, read-out: Observed Activity (%) (% of untreated) against Phakopsora pachyrhizi
[9] = Phakopsora pachyrhizi, foliar, 4.5 g/ha, read-out: Observed Activity (%) (% of untreated) against Phakopsora pachyrhizi
[10] = 0.1 ppm, read-out: Activity (%) A

melting point | SMILES | pest or weed control at 200 ppm [1] | pest or weed control at 67 ppm (Phakopsora pachyrhizi [2]) | inhibition of growth at 6.7 ppm [3] | pest or weed control at 200 ppm [4] | further results
110 to 113 °C | CCC(C)c1ccn(-c2ccc(C)c(O/C(=C\OC)C(=O)OC)c2)n1 (stereo not shown) [X.02, methyl (Z)-3-methoxy-2-[2-methyl-5-(3-sec-butylpyrazol-1-yl)phenoxy]prop-2-enoate] | ≥ 80% | ≥ 80% | ≥ 80% | – | –
115 to 118 °C | CO/C=C(\Oc1cc(-n2ccc(C3CC3)n2)ccc1C)C(=O)OC [X.07, methyl (Z)-2-[5-(3-cyclopropylpyrazol-1-yl)-2-methyl-phenoxy]-3-methoxy-prop-2-enoate] | ≥ 80% | ≥ 80% | ≥ 80% | ≥ 80% | –
– | CCCc1cnn(-c2ccc(C)c(O/C(=C\OC)C(=O)OC)c2)n1 [X.09, methyl (Z)-3-methoxy-2-[2-methyl-5-(4-propyltriazol-2-yl)phenoxy]prop-2-enoate] | ≥ 80% | ≥ 80% | ≥ 80% | ≥ 80% | inhibition at 0.0025 ppm (Septoria glycines; 0.0025 ppm): 70%; inhibition at 0.005 ppm (Septoria glycines; 0.005 ppm): 90%; inhibition at 0.0025 ppm (Septoria tritici; Zymoseptoria tritici, 72 h, 0.0025 ppm): 70%; inhibition at 0.005 ppm (Septoria tritici; Zymoseptoria tritici, 72 h, 0.005 ppm): 90%; inhibition at 0.0025 ppm ([5]; 0.0025 ppm): 50%; inhibition at 0.005 ppm ([5]; 0.005 ppm): 90%; inhibition at 2.25 g/ha (Phakopsora pachyrhizi [6]; [8]): 34%; inhibition at 4.5 g/ha (Phakopsora pachyrhizi [6]; Phakopsora pachyrhizi, foliar, 4.5 g/ha, read-out: Observed Activity (% of untreated) against Phakopsora pachyrhizi): 94%; inhibition at 4.5 g/ha (Phakopsora pachyrhizi [6]; [9]): 95%; inhibition at 9 g/ha (Phakopsora pachyrhizi [6]; Phakopsora pachyrhizi, foliar, 9 g/ha, read-out: Observed Activity (% of untreated) against Phakopsora pachyrhizi): 97%; inhibition at 18 g/ha (Phakopsora pachyrhizi [6]; Phakopsora pachyrhizi, foliar, 18 g/ha, read-out: Observed Activity (% of untreated) against Phakopsora pachyrhizi): 97%; Observed Activity (% of untreated) against Phakopsora pachyrhizi (Phakopsora pachyrhizi [6]; 4.5 g/ha): 93% and 81% and 82%
– | CO/C=C(\Oc1cc(-n2ncc(C3CC3)n2)ccc1C)C(=O)OC [X.11, methyl (Z)-2-[5-(4-cyclopropyltriazol-2-yl)-2-methyl-phenoxy]-3-methoxy-prop-2-enoate] | ≥ 80% | ≥ 80% | ≥ 80% | ≥ 80% | –
– | CO/C=C(\Oc1cc(-n2ncc(C(C)C)n2)ccc1C)C(=O)OC [X.12, methyl (Z)-2-[5-(4-isopropyltriazol-2-yl)-2-methyl-phenoxy]-3-methoxy-prop-2-enoate] | ≥ 80% | ≥ 80% | ≥ 80% | ≥ 80% | –
91 to 94 °C | CO/C=C(\Oc1cc(-n2ccc(C3CCC3)n2)ccc1C)C(=O)OC [X.04, methyl (Z)-2-[5-(3-cyclobutylpyrazol-1-yl)-2-methyl-phenoxy]-3-methoxy-prop-2-enoate] | ≥ 80% | ≥ 80% | ≥ 80% | ≥ 80% | –
94 to 97 °C | CO/C=C(\Oc1cc(-n2ccc(OC(C)C)n2)ccc1C)C(=O)OC [X.03, methyl (Z)-2-[5-(3-isopropoxypyrazol-1-yl)-2-methyl-phenoxy]-3-methoxy-prop-2-enoate] | ≥ 80% | ≥ 80% | ≥ 80% | ≥ 80% | –
76 to 80 °C | CO/C=C(\Oc1cc(-n2ccc(CC(C)C)n2)ccc1C)C(=O)OC [X.05, methyl (Z)-2-[5-(3-isobutylpyrazol-1-yl)-2-methyl-phenoxy]-3-methoxy-prop-2-enoate] | ≥ 80% | ≥ 80% | ≥ 80% | ≥ 80% | –
154 to 156 °C | CO/C=C(\Oc1cc(-n2ccc(C(F)(F)F)n2)ccc1C)C(=O)OC [X.08, methyl (Z)-3-methoxy-2-[2-methyl-5-[3-(trifluoromethyl)pyrazol-1-yl]phenoxy]prop-2-enoate] | ≥ 80% | ≥ 80% | ≥ 80% | – | inhibition at 0.03 ppm ([7]; 0.03 ppm): 0%; inhibition at 0.1 ppm [7, 10]: 0%; inhibition at 0.00625 ppm (Septoria glycines; 0.00625 ppm): 0%; inhibition at 0.025 ppm (Septoria glycines; 0.025 ppm): 70%; inhibition at 0.03 ppm (Septoria glycines; 0.03 ppm, read-out: Activity (%) A): 70%; inhibition at 0.05 ppm (Septoria glycines; 0.05 ppm): 90%; inhibition at 0.1 ppm (Septoria glycines; [10]): 70%; inhibition at 0.00625 ppm (Septoria tritici; Zymoseptoria tritici, 0.00625 ppm, 100-0 scale): 0%; inhibition at 0.025 ppm (Septoria tritici; Zymoseptoria tritici, 0.025 ppm, 100-0 scale): 70%; inhibition at 0.03 ppm (Septoria tritici; Zymoseptoria tritici, 0.03 ppm, 100-0 scale, read-out: Activity (%) A): 50%; inhibition at 0.1 ppm (Septoria tritici; Zymoseptoria tritici, 0.1 ppm, 100-0 scale, read-out: Activity (%) A): 70%; Activity (%) A (Septoria tritici; 0.025 ppm, 100-0 scale): 90%; inhibition at 0.00625 ppm ([5]; 0.00625 ppm): 0%; inhibition at 0.025 ppm ([5]; 0.025 ppm): 70%; inhibition at 0.03 ppm ([5]; 0.03 ppm): 70%; inhibition at 2.25 g/ha (Phakopsora pachyrhizi [6]; [8]): 1%; inhibition at 4.5 g/ha (Phakopsora pachyrhizi [6]; [9]): 10%; Observed Activity (% of untreated) against Phakopsora pachyrhizi (Phakopsora pachyrhizi [6]; 18 g/ha): 38% and 77%
